#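 Test compounds were applied to cells in 96-well plates for 48 hours at 5 doses. Abbreviation: GI50, concentration required for 50% inhibition of growth. Definition used: TGI = concentration required for complete inhibition of growth.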
# Tests used:
# Assay in all cases: NCI anticancer screen, dose series, 48 h
# SK-MEL-28 melanoma = tested on: SK-MEL-28 melanoma
# SK-MEL-2 melanoma = tested on: SK-MEL-2 melanoma
# M14 melanoma = tested on: M14 melanoma
# EKVX NSCLC = tested on: EKVX NSCLC
# U251 CNS = tested on: U251 CNS
# PC-3 prostate = tested on: PC-3 prostate
# RPMI-8226 leukemia = tested on: RPMI-8226 leukemia
# OVCAR-3 ovarian = tested on: OVCAR-3 ovarian
# NCI-H23 lung = tested on: NCI-H23 lung
# MALME-3M melanoma = tested on: MALME-3M melanoma
# T-47D breast = tested on: T-47D breast
# UO-31 renal = tested on: UO-31 renal
# SK-MEL-5 melanoma = tested on: SK-MEL-5 melanoma
# MDA-MB-468 breast = tested on: MDA-MB-468 breast
# A549 NSCLC = tested on: A549 NSCLC
# MDA-MB-435 = tested on: MDA-MB-435
# HOP-62 NSCLC = tested on: HOP-62 NSCLC
# HCC-2998 colon = tested on: HCC-2998 colon
# SK-OV-3 ovarian = tested on: SK-OV-3 ovarian
# A498 renal = tested on: A498 renal
# TK-10 renal = tested on: TK-10 renal
# NCI-H226 lung = tested on: NCI-H226 lung
# SF-268 CNS = tested on: SF-268 CNS
# NCI-H522 lung = tested on: NCI-H522 lung
# K-562 leukemia = tested on: K-562 leukemia
# 786-0 renal = tested on: 786-0 renal
# SF-539 CNS = tested on: SF-539 CNS
# HCT-15 colon = tested on: HCT-15 colon
# COLO 205 colon = tested on: COLO 205 colon
# OVCAR-8 ovarian = tested on: OVCAR-8 ovarian
# SN12C renal = tested on: SN12C renal
# HS 578T breast = tested on: HS 578T breast
# SW-620 colon = tested on: SW-620 colon
# HOP-92 NSCLC = tested on: HOP-92 NSCLC
# ACHN renal = tested on: ACHN renal
# HT29 colon = tested on: HT29 colon
# CCRF-CEM leukemia = tested on: CCRF-CEM leukemia
# CAKI-1 renal = tested on: CAKI-1 renal
# SF-295 CNS = tested on: SF-295 CNS
# MCF7 breast = tested on: MCF7 breast
# SNB-19 CNS = tested on: SNB-19 CNS
# MDA-MB-231 breast = tested on: MDA-MB-231 breast
# HCT-116 colon = tested on: HCT-116 colon
# BT-549 breast = tested on: BT-549 breast
# OVCAR-4 ovarian = tested on: OVCAR-4 ovarian
# UACC-62 melanoma = tested on: UACC-62 melanoma
# KM12 colon = tested on: KM12 colon
# SR leukemia = tested on: SR leukemia
# NCI-H460 lung = tested on: NCI-H460 lung
# DU-145 prostate = tested on: DU-145 prostate
# UACC-257 melanoma = tested on: UACC-257 melanoma
# RXF 393 renal = tested on: RXF 393 renal
# IGROV1 ovarian = tested on: IGROV1 ovarian
# OVCAR-5 ovarian = tested on: OVCAR-5 ovarian
structure (smiles),measurement,setting,value
COc1cc(/C=C/C(=O)c2cnn(-c3cc(=O)[nH]c4ccc(Cl)cc34)c2C)cc(OC)c1OC,GI50,SK-MEL-28 melanoma,3.36 µM
same,TGI,SK-MEL-28 melanoma,13.3 µM
same,GI50,SK-MEL-2 melanoma,2.98 µM
same,TGI,SK-MEL-2 melanoma,11.8 µM
same,GI50,M14 melanoma,3.2 µM
same,TGI,M14 melanoma,19.8 µM
same,GI50,EKVX NSCLC,2.96 µM
same,TGI,EKVX NSCLC,14.1 µM
same,GI50,U251 CNS,2.83 µM
same,TGI,U251 CNS,> 100 µM
same,GI50,PC-3 prostate,6.28 µM
same,TGI,PC-3 prostate,> 100 µM
same,GI50,RPMI-8226 leukemia,2.42 µM
same,TGI,RPMI-8226 leukemia,> 100 µM
same,GI50,OVCAR-3 ovarian,3.06 µM
same,TGI,OVCAR-3 ovarian,9.9 µM
same,GI50,NCI-H23 lung,2.21 µM
same,TGI,NCI-H23 lung,5.9 µM
same,GI50,MALME-3M melanoma,5.1 µM
same,TGI,MALME-3M melanoma,27.2 µM
same,GI50,T-47D breast,3.08 µM
same,TGI,T-47D breast,> 100 µM
same,GI50,UO-31 renal,3.26 µM
same,TGI,UO-31 renal,14.5 µM
same,GI50,SK-MEL-5 melanoma,3.22 µM
same,TGI,SK-MEL-5 melanoma,12 µM
same,GI50,MDA-MB-468 breast,1.8 µM
same,TGI,MDA-MB-468 breast,4.41 µM
same,GI50,A549 NSCLC,3.09 µM
same,TGI,A549 NSCLC,> 100 µM
same,GI50,MDA-MB-435,2.6 µM
same,TGI,MDA-MB-435,8.12 µM
same,GI50,HOP-62 NSCLC,3.57 µM
same,TGI,HOP-62 NSCLC,25.8 µM
same,GI50,HCC-2998 colon,2.78 µM
same,TGI,HCC-2998 colon,8.21 µM
same,GI50,SK-OV-3 ovarian,4.68 µM
same,TGI,SK-OV-3 ovarian,> 100 µM
same,GI50,A498 renal,34.2 µM
same,TGI,A498 renal,87.4 µM
same,GI50,TK-10 renal,3.26 µM
same,TGI,TK-10 renal,> 100 µM
same,GI50,NCI-H226 lung,2.89 µM
same,TGI,NCI-H226 lung,9.13 µM
same,GI50,SF-268 CNS,3.42 µM
same,TGI,SF-268 CNS,> 100 µM
same,GI50,NCI-H522 lung,2.66 µM
same,TGI,NCI-H522 lung,8.38 µM
same,GI50,K-562 leukemia,2.68 µM
same,TGI,K-562 leukemia,> 100 µM
same,GI50,786-0 renal,4.09 µM
same,TGI,786-0 renal,21.1 µM
same,GI50,SF-539 CNS,2.08 µM
same,TGI,SF-539 CNS,4.62 µM
same,GI50,HCT-15 colon,1.93 µM
same,TGI,HCT-15 colon,5.01 µM
same,GI50,COLO 205 colon,3.53 µM
same,TGI,COLO 205 colon,14 µM
same,GI50,OVCAR-8 ovarian,2.06 µM
same,TGI,OVCAR-8 ovarian,4.95 µM
same,GI50,SN12C renal,2.64 µM
same,TGI,SN12C renal,9.24 µM
same,GI50,HS 578T breast,3.31 µM
same,TGI,HS 578T breast,> 100 µM
same,GI50,SW-620 colon,2.97 µM
same,TGI,SW-620 colon,11.5 µM
same,GI50,HOP-92 NSCLC,7.31 µM
same,TGI,HOP-92 NSCLC,99.8 µM
same,GI50,ACHN renal,1.76 µM
same,TGI,ACHN renal,3.68 µM
same,GI50,HT29 colon,2.5 µM
same,TGI,HT29 colon,6.58 µM
same,GI50,CCRF-CEM leukemia,2.42 µM
same,TGI,CCRF-CEM leukemia,> 100 µM
same,GI50,CAKI-1 renal,4.17 µM
same,TGI,CAKI-1 renal,22.5 µM
same,GI50,SF-295 CNS,3.16 µM
same,TGI,SF-295 CNS,11.5 µM
same,GI50,MCF7 breast,2.48 µM
same,TGI,MCF7 breast,10.2 µM
same,GI50,SNB-19 CNS,3.36 µM
same,TGI,SNB-19 CNS,14.4 µM
same,GI50,MDA-MB-231 breast,3.3 µM
same,TGI,MDA-MB-231 breast,14.9 µM
same,GI50,HCT-116 colon,3.58 µM
same,TGI,HCT-116 colon,17.5 µM
same,GI50,BT-549 breast,2.76 µM
same,TGI,BT-549 breast,9.98 µM
same,GI50,OVCAR-4 ovarian,3.58 µM
same,TGI,OVCAR-4 ovarian,> 100 µM
same,GI50,UACC-62 melanoma,3.36 µM
same,TGI,UACC-62 melanoma,15 µM
same,GI50,KM12 colon,3.37 µM
same,TGI,KM12 colon,15 µM
same,GI50,SR leukemia,2.02 µM
same,TGI,SR leukemia,> 100 µM
same,GI50,NCI-H460 lung,1.88 µM
same,TGI,NCI-H460 lung,4.32 µM
same,GI50,DU-145 prostate,3.3 µM
same,TGI,DU-145 prostate,> 100 µM
same,GI50,UACC-257 melanoma,7.19 µM
same,TGI,UACC-257 melanoma,64.4 µM
same,GI50,RXF 393 renal,2.08 µM
same,TGI,RXF 393 renal,4.95 µM
same,GI50,IGROV1 ovarian,2.54 µM
same,TGI,IGROV1 ovarian,7.18 µM
same,GI50,OVCAR-5 ovarian,3.32 µM
same,TGI,OVCAR-5 ovarian,13.4 µM
